*1 amine or outer side, *2 acyl side, *3 side chain or, on linkers, in order; H or OH if unused. Where a SMILES comes first, the peptide text is derived from it. [ ]: non-standard residue; d: D form. The star is where a group is joined. X1 = C[C@H](CP(=O)(O)[C@H](Cc1ccccc1)N[*:1])C(=O)[*:2]; Cbz = O=C(OCc1ccccc1)*
Key:
human meprin = settings: concentrations of up to 100 nM; FIG. 3
Experimental: The meprin activity test was carried out in a completely analogous manner to the in-vitro assay for measuring PCP activity. Instead of the recombinant PCP, use was made of human meprin, which also transforms the fluorescence-labeled decapeptide.

[1] = biological target: recombinant PCP (procollagen C-proteinase) (Homo sapiens, UniProt P13497); settings: 100 nM inhibitor; FIG. 1
recombinant PCP (procollagen C-proteinase), sequence (P13497 121-986, species assumed): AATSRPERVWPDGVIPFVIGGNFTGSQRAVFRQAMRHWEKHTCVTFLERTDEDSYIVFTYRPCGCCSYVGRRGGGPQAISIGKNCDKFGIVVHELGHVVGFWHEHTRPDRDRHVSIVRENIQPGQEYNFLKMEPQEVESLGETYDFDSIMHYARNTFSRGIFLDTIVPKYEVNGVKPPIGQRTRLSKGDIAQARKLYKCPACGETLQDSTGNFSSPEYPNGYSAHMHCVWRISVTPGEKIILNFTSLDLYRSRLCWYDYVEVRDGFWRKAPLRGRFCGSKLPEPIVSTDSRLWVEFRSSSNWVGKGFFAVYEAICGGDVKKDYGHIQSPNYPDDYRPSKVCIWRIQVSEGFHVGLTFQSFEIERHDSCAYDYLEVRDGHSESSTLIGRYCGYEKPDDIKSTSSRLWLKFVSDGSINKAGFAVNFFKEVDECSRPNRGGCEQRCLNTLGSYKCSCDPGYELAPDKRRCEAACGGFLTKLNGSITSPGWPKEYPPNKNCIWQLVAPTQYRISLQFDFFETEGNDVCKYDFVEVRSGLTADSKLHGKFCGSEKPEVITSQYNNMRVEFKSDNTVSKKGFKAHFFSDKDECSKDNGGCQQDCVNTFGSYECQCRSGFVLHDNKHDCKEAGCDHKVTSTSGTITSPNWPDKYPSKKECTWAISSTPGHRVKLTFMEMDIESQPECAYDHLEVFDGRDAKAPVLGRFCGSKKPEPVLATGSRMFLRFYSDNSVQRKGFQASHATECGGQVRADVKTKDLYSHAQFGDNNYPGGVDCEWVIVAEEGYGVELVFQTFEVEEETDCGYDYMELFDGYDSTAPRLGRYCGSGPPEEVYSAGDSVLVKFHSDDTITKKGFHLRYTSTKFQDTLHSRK

COC(=O)[C@H](CC(C)C)NC(=O)[C@@H]1CCCN1C(=O)[C@H](C)CP(=O)(O)[C@H](Cc1ccccc1)NC(=O)[C@H](CCCCN)NC(=O)[C@@H]1CCCN1C(=O)OCc1ccccc1 [Z-PKF(PC)APL-O-Me] (Cbz-PK[X1]PL-OMe)
inhibition of meprin in its transformation of the fluorescence-labeled peptide (human meprin): only slightly inhibited | inhibition of PCP enzyme activity (transformation of the DABCYL-EDANS-decapeptide substrate as a function of time) [1]: almost completely inhibited

Reference: patent US6750202B1, “Phosphinate peptide analogs for the treatment of fibrotic disorders” (priority 1998, dated 2004)
